Legend:
rat [1] = conditions: Subchronic oral toxicity in rodents, fischer, Gavage/Intubation, dose end: 13 week, group: systemic
mouse [2] = conditions: Subchronic oral toxicity in rodents, b6c3f1, Gavage/Intubation, dose end: 13 week, group: systemic
rabbit [3] = conditions: Prenatal developmental toxicity study, new zealand white, Oral, Gavage/Intubation, dose end: 19 GD
mouse [4] = conditions: Carcinogenicity, cd1, Oral, Feed, dose end: 22 month, group: systemic
dog [5] = conditions: Chronic toxicity; beagle; Oral; Capsule; dose end: 12 month; group: systemic; systemic / in life observation / clinical signs / emesis + systemic / in life observation / clinical signs / mucoid stools + systemic / in …
mouse [6] = conditions: Carcinogenicity; cd1; Oral; Feed; dose end: 113 week; group: systemic; systemic / pathology microscopic / intestine small / adenocarcinoma + systemic / pathology microscopic / intestine small / adenoma + …
rat [7] = conditions: Subchronic oral toxicity in rodents, sprague dawley, Gavage/Intubation, dose end: 13 week, group: systemic
rat [8] = conditions: Prenatal developmental toxicity study, sprague dawley, Oral, Gavage/Intubation, dose end: 15 GD, group: maternal
rat [9] = conditions: Combined chronic toxicity/carcinogenicity; other; Oral; Feed; dose end: 2 year; group: systemic; systemic / clinical chemistry / peroxisomal beta-oxidation analysis / peroxisomal beta-oxidation analysis + systemic / organ weight / liver…
rat [10] = conditions: Multigenerational reproductive toxicity study, sprague dawley, Oral, Gavage/Intubation, dose end: 2 generation
rabbit [11] = conditions: Prenatal developmental toxicity study, new zealand white, Oral, Gavage/Intubation, dose end: 18 GD
rat [12] = conditions: Combined chronic toxicity/carcinogenicity; sprague dawley; Oral; Feed; dose end: 104 week; group: systemic; systemic / clinical chemistry / alkaline phosphatase (alp/alk) / alkaline phosphatase (alp/alk) + systemic / clinical chemistry / aspartate …
rat [13] = conditions: Subchronic oral toxicity in rodents, Charles River CD, Feed, dose end: 90 day, group: systemic
dog [14] = conditions: Chronic toxicity, beagle, Oral, Feed, dose end: 52 week
rat [15] = conditions: Subchronic oral toxicity in rodents, sprague dawley, Feed, dose end: 90 day
rat [16] = conditions: Chronic toxicity, sprague dawley, Oral, Feed, dose end: 98 week, group: cholinesterase
rat [17] = conditions: Prenatal developmental toxicity study, sprague dawley, Oral, Gavage/Intubation, dose end: 15 GD
rat [18] = conditions: Developmental neurotoxicity range-finding study, sprague dawley, Oral, Feed, dose end: 21 PND, group: cannot be grouped
rat [19] = conditions: Acute oral toxicity, wistar, [Not Specified], dose end: 7 day, group: systemic, systemic / clinical chemistry / calcium / calcium + systemic / urinalysis / calcium / calcium
[20] = systemic / clinical chemistry / albumin / albumin + systemic / clinical chemistry / protein / protein + systemic / hematology / mean …
[21] = systemic / in life observation / clinical signs / lacrimation + systemic / hematology / mean corpuscular (cell) volume (mcv) / mean …
[22] = systemic / in life observation / clinical signs / hyperactivity + systemic / in life observation / mortality / mortality + systemic / …
[23] = group: developmental, developmental / developmental malformation / bone / delayed ossification + developmental / developmental malformation / bone / full …
[24] = group: maternal, systemic / in life observation / body weight / body weight gain + systemic / in life observation / clinical signs / anorexia + systemic / in…
[25] = systemic / in life observation / body weight / body weight + systemic / in life observation / food consumption / food consumption
[26] = systemic / pathology microscopic / intestine small / neoplasm nos + systemic / pathology microscopic / stomach / neoplasm nos + systemic / …
[27] = systemic / organ weight / liver / absolute + systemic / organ weight / liver / relative to body weight + systemic / in life observation / …
[28] = systemic / in life observation / body weight / body weight + systemic / in life observation / clinical signs / alopecia + systemic / in life…
[29] = group: offspring, developmental / offspring survival late / lactation index / lactation index + developmental / offspring survival late / [other] / [other] + …
[30] = group: parental, systemic / in life observation / body weight / body weight + systemic / in life observation / body weight / body weight gain + systemic / in…
[31] = group: parental, systemic / organ weight / kidney / relative to body weight + systemic / organ weight / liver / absolute + systemic / organ weight / liver / …
[32] = group: developmental, developmental / developmental malformation / bone / full supernumerary
[33] = group: maternal, systemic / in life observation / body weight / body weight gain
[34] = systemic / organ weight / liver / absolute + systemic / organ weight / liver / relative to body weight + systemic / pathology microscopic / …
[35] = group: cholinesterase, cholinesterase / cholinesterase / cholinesterase / cholinesterase (che) + cholinesterase / cholinesterase / cholinesterase / plasma …
[36] = group: systemic, systemic / organ weight / lung / relative to brain weight
[37] = group: cholinesterase, cholinesterase / cholinesterase / cholinesterase / plasma cholinesterase (che)
[38] = group: cholinesterase, cholinesterase / cholinesterase / cholinesterase / plasma cholinesterase (che) + cholinesterase / cholinesterase / cholinesterase / brain …
[39] = group: systemic, systemic / in life observation / body weight / body weight gain + systemic / in life observation / clinical signs / aggressive behavior + …
[40] = cholinesterase / cholinesterase / cholinesterase / plasma cholinesterase (che)
[41] = cholinesterase / cholinesterase / cholinesterase / plasma cholinesterase (che) + cholinesterase / cholinesterase / cholinesterase / brain …
[42] = group: developmental, developmental / developmental malformation / bone / short + systemic / in life observation / body weight / fetal weight
[43] = group: maternal, systemic / in life observation / body weight / body weight gain + reproductive / reproductive performance / postimplantation loss / …

## C[N+](C)(C)Cc1ccccc1.[Cl-] [Benzyltrimethylammonium chloride]
Rat [1]; [20]
  LOAEL: > 100 mg/kg/day
  NOAEL: ≥ 100 mg/kg/day
Rat [1]; [21]
  LEL: 12.5 mg/kg/day
  NEL: < 12.5 mg/kg/day
Mouse [2]; systemic / clinical chemistry / protein / protein
  LEL: 25 mg/kg/day
Mouse [2]; systemic / clinical chemistry / protein / protein + systemic / in life observation / mortality / mortality + systemic / organ weight / heart…
  NEL: 12.5 mg/kg/day
Mouse [2]; [22]
  LOAEL: > 100 mg/kg/day
  NOAEL: ≥ 100 mg/kg/day

## O=C1C2CC=CCC2C(=O)N1SC(Cl)(Cl)Cl (stereo not given) [Captan]
Rabbit [3]; [23]
  LEL: 30 mg/kg/day
  LOAEL: 30 mg/kg/day
  NEL: 10 mg/kg/day
  NOAEL: 10 mg/kg/day
Rabbit [3]; [24]
  LEL: 30 mg/kg/day
  LOAEL: 30 mg/kg/day
  NEL: 10 mg/kg/day
  NOAEL: 10 mg/kg/day
Mouse [4]; [25]
  LOAEL: 925 mg/kg/day
Mouse [4]; systemic / pathology microscopic / intestine small / neoplasm nos + systemic / pathology microscopic / stomach / neoplasm nos
  LEL: 60.9 mg/kg/day
Mouse [4]; [26]
  NEL: 15.1 mg/kg/day
  NOAEL: 123 mg/kg/day
Dog [5]
  LEL: 300 mg/kg/day
  LOAEL: 300 mg/kg/day
  NEL: 60 mg/kg/day
  NOAEL: 60 mg/kg/day
Mouse [6]
  LEL: 599 mg/kg/day
  LOAEL: > 1880 mg/kg/day
  NEL: < 599 mg/kg/day
  NOAEL: ≥ 1880 mg/kg/day

## CCCCCCCCOC(C)=O [Octyl acetate]
Rat [7]; systemic / in life observation / body weight / body weight + systemic / in life observation / food consumption / food consumption + systemic…
  NEL: 100 mg/kg/day
Rat [7]; [27]
  LOAEL: > 1000 mg/kg/day
  NOAEL: ≥ 1000 mg/kg/day
Rat [7]; systemic / organ weight / liver / relative to body weight
  LEL: 500 mg/kg/day
Rat [8]; [28]
  LOAEL: > 1000 mg/kg/day
  NEL: 100 mg/kg/day
  NOAEL: ≥ 1000 mg/kg/day
Rat [8]; [25]
  LEL: 500 mg/kg/day

## O=C([O-])C(F)(F)C(F)(F)C(F)(F)C(F)(F)C(F)(F)C(F)(F)C(F)(F)F.[NH4+] [PFOA, ammonium salt]
Rat [9]
  LEL: 15 mg/kg/day
  LOAEL: > 15 mg/kg/day
  NEL: < 15 mg/kg/day
  NOAEL: ≥ 15 mg/kg/day
Rat [10]; [29]
  LEL: 30 mg/kg/day
  LOAEL: > 30 mg/kg/day
  NEL: 10 mg/kg/day
  NOAEL: ≥ 30 mg/kg/day
Rat [10]; [30]
  LOAEL: > 30 mg/kg/day
  NOAEL: ≥ 30 mg/kg/day
Rat [10]; [31]
  LEL: 1 mg/kg/day
  NEL: < 1 mg/kg/day
Rabbit [11]; [32]
  LEL: 50 mg/kg/day
  LOAEL: > 50 mg/kg/day
  NEL: 5 mg/kg/day
  NOAEL: ≥ 50 mg/kg/day
Rabbit [11]; [33]
  LEL: 50 mg/kg/day
  LOAEL: 50 mg/kg/day
  NEL: 5 mg/kg/day
  NOAEL: 5 mg/kg/day
Rat [12]
  LEL: 1.3 mg/kg/day
  LOAEL: > 14.2 mg/kg/day
  NEL: < 1.3 mg/kg/day
  NOAEL: ≥ 14.2 mg/kg/day
Rat [13]; systemic / clinical chemistry / alkaline phosphatase (alp/alk) / alkaline phosphatase (alp/alk) + systemic / clinical chemistry / urea …
  NEL: 0.5 mg/kg/day
Rat [13]; systemic / organ weight / kidney / absolute
  LEL: 1.5 mg/kg/day
Rat [13]; [34]
  LOAEL: > 50 mg/kg/day
  NOAEL: ≥ 50 mg/kg/day

## CCOP(=S)(OCC)Oc1cc(C)nc(C(C)C)n1 [Diazinon]
Dog [14]; group: cholinesterase, cholinesterase / cholinesterase / cholinesterase / cholinesterase (che)
  LEL: 0.015 mg/kg/day
Dog [14]; group: cholinesterase, cholinesterase / cholinesterase / cholinesterase / cholinesterase (che) + cholinesterase / cholinesterase / cholinesterase / brain …
  NEL: 0.0032 mg/kg/day
Dog [14]; [35]
  LOAEL: 0.02 mg/kg/day
  NOAEL: 0.0037 mg/kg/day
Dog [14]; group: systemic, systemic / clinical chemistry / [other] / [other] + systemic / in life observation / food consumption / food consumption
  LOAEL: 4.5 mg/kg/day
Dog [14]; group: systemic, systemic / clinical chemistry / [other] / [other] + systemic / in life observation / food consumption / food consumption + systemic / in …
  NOAEL: 0.02 mg/kg/day
Dog [14]; [36]
  LEL: 0.0037 mg/kg/day
  NEL: < 0.0037 mg/kg/day
Rat [15]; [37]
  LEL: 0.3 mg/kg/day
  LOAEL: 0.3 mg/kg/day
Rat [15]; [38]
  NEL: 0.03 mg/kg/day
  NOAEL: 0.03 mg/kg/day
Rat [15]; [39]
  LEL: 168 mg/kg/day
  LOAEL: > 168 mg/kg/day
  NEL: 15 mg/kg/day
  NOAEL: ≥ 168 mg/kg/day
Rat [16]; [40]
  LEL: 0.06 mg/kg/day
  LOAEL: 0.06 mg/kg/day
Rat [16]; [41]
  NEL: 0.004 mg/kg/day
  NOAEL: 0.004 mg/kg/day
Rat [17]; group: developmental, developmental / developmental malformation / bone / short
  LOAEL: 100 mg/kg/day
Rat [17]; [42]
  LEL: 100 mg/kg/day
  NEL: 20 mg/kg/day
  NOAEL: 20 mg/kg/day
Rat [17]; [33]
  LOAEL: 100 mg/kg/day
Rat [17]; [43]
  LEL: 100 mg/kg/day
  NEL: 20 mg/kg/day
  NOAEL: 20 mg/kg/day
Rat [18]; [40]
  LOAEL: 0.063 mg/kg/day
Rat [18]; [41]
  LEL: 0.063 mg/kg/day
  NEL: 0.0125 mg/kg/day
  NOAEL: 0.0125 mg/kg/day

## COc1ccc2c(c1)c(CC(=O)O)c(C)n2C(=O)c1ccc(Cl)cc1 [Indomethacin]
Rat [19]
  LEL: 20 mg/kg/day
  LOAEL: > 20 mg/kg/day
  NEL: < 20 mg/kg/day
  NOAEL: ≥ 20 mg/kg/day

— EPA's ToxRefDB 2
